The source of these data is patent US5827827A, “HIV-1 protease inhibitors” (The Scripps Research Institute, priority 1996, dated 1998).

The test system of one test is HIV-2 PR. The following applies: Blumenstein et al. 1989; cited from earlier work.
The subject of the next test is HIV-1 PR. The following applies: Blumenstein et al. 1989; cited from earlier work.
In another test the target is T1, HIV-1 protease (Human immunodeficiency virus type 1 group M subtype B, UniProt P03369).
T1 construct: each of the identical 99 amino acid subunits contributes a single aspartyl residue to the catalytic site; made in house; host or cells: chemical synthesis (no expression host); obtained from Dr. Stephen Kent, The Scripps Research Institute
The test can be described thus: HIV-1 PR inhibition (HPLC assay of HIV substrate IV cleavage after preincubation with inhibitor). It counts as biochemical. As for the experimental part: Typical reactions were carried out at room temperature (25° C.) in 150 μl total volumes of 100 mM MES buffer, pH 6.2, containing 1 mM ethylenediaminetetraacetic acid (EDTA) and 2 mM dithiothreitol (DTT) plus 0.1 percent (v/v) Triton X-100.
Synthetic HIV-1 protease [0.5 μg, obtained from Dr. Stephen Kent of The Scripps Research Institute; see Cell, 1988, 54; 363-368] was first incubated in buffer with (or without) various concentrations of "inhibitor(s)" for 30 minutes at 25° C. The protease reaction was then initiated by the addition of HIV substrate IV (Bachem Bioscience Inc.) at fixed concentrations (e.g., 100 mg/ml). HIV Substrate IV has the sequence
Lys-Ala-Arg-Val-Nle-p-NO2 Phe-glu-Ala-Nle-NH2 (SEQ ID NO 15)
At three appropriate times (normally 40, 80 and 120 minutes) the hydrolysis was stopped by adding a 40 μl aliquot from the reaction to 40 μl of a prepared quench solution. The quench solution was 1:4 acetonitrile:water (3 percent trifluoroacetic acid; TFA) and contained 150 μM m-toluic acid which served as an HPLC standard. […] Reaction progress was monitored by following the increasing absorbance (peak height) of the substrate IV cleavage product detected at […]. […]

On to `C/C=C/C/C=C/CCC(=O)[C@H]1O[C@H]1C(N)=O` [cerulenin], for which the “inhibition of HIV-2 PR” value in the test with HIV-2 PR is given as “weakly inhibit”. In the test with HIV-1 PR, the “inhibition of HIV-1 PR” value is on record as “weakly inhibit”.

Regarding `CC(C)(C)OC(=O)N[C@@H](Cc1ccccc1)C1(C)CO1` (stereo partly shown) [Example 2], the “t1/2 of inactivation of the protease” value at HIV-1 protease (2 mM inhibitor, preincubation, 25° C., pH 6.2) is 3 h. For the same compound, at HIV-1 protease (preincubation with 2 mM inhibitor (FIG. 1)), the “mode of inhibition of HIV-1 PR” value was “competitive and timedependent inactivation”.
